Results on one compound are retold here after ChEMBL document CHEMBL3784927, “Serum azathioprine and 6-mercaptopurine levels and immunosuppressive activity after azathioprine in uremic patients” (Int J Immunopharmacol, 1986).

Data set [1] is described as follows: Cmax in uremic patient (15 patients) at 100 mg, iv by gas chromatography-mass spectrometry with multiple detection method. As to conditions: human, in vivo.
Data set [2] can be described thus: Tmax in uremic patient (15 patients) at 100 mg, iv by gas chromatography-mass spectrometry with multiple detection method. As to conditions: human, in vivo.
Data set [3] is described as follows: Primary phase half life in uremic patient (13 patients) at 100 mg, iv by gas chromatography-mass spectrometry with multiple detection method. As to conditions: human, in vivo.
Data set [4] is described as follows: Terminal phase half life in uremic patient (15 patients) at 100 mg, iv by gas chromatography-mass spectrometry with multiple detection method. Conditions: human, in vivo.
The nature of data set [5]: AUC (0 to infinity) in uremic patient (15 patients) at 100 mg, iv by gas chromatography-mass spectrometry with multiple detection method. Conditions: human, in vivo.
Data set [6] can be described thus: Total clearance in uremic patient (15 patients) at 100 mg, iv by gas chromatography-mass spectrometry with multiple detection method. As to conditions: human, in vivo.
Data set [7] can be described thus: Volume of distribution in uremic patient (15 patients) at 100 mg, iv by gas chromatography-mass spectrometry with multiple detection method. As to conditions: human, in vivo.
The nature of data set [8]: Cmax in uremic patient (8 patients) at 100 mg, po by gas chromatography-mass spectrometry with multiple detection method. Conditions: human, in vivo.
The nature of data set [9]: Tmax in uremic patient (8 patients) at 100 mg, po by gas chromatography-mass spectrometry with multiple detection method. As to conditions: human, in vivo.
Data set [10] can be described thus: AUC (0 to infinity) in uremic patient (7 patients) at 100 mg, po by gas chromatography-mass spectrometry with multiple detection method. As to conditions: human, in vivo.
A short description of data set [11]: Half life in human with good renal function. Conditions: in vivo.
Data set [12] is described as follows: Clearance in kidney transplant patient. Conditions: human, in vivo.

Turning to `Cn1cnc([N+](=O)[O-])c1Sc1ncnc2nc[nH]c12` [AZATHIOPRINE], the values for the Cmax in [1] and in data set [8] were 3.14 µM and 180 nM, respectively. Further, the figures for the Tmax in data set [2] and in data set [9] were 5 min and 15 min, respectively. The half-life (usually the time in which the quantity being followed falls by half) worked out at 6.05 min in [3], 49.5 min in [4] and 10 min in data set [11]. In addition, the AUC(0-inf) (in general, the area under the concentration-time curve extrapolated to infinity) in [5] was 1.04 µM·h; in data set [10], 0.164 µM·h. The clearance (usually the rate of elimination divided by the concentration) in data set [6] is 6920 mL/min; in [12], 57 mL/min/kg. Further, in data set [7], the Vd – broadly, a proportionality between amount in the body and measured concentration, not a real space – came to 438 L.
